The source of these data is ChEMBL document CHEMBL3044793, “Antihepatotoxic activity of ferolactone, a new furanocoumarin from Feronia limonia” (2012).

The subject of assay [1] is Rattus norvegicus. In words: Hepatoprotective activity in Rattus norvegicus Wistar albino (rat) assessed as reduction in CCl4-induced fatty accumulation at 50 mg/kg, po administered QD for 6 days measured on day 8 by hematoxylin and eosin staining-based microscopic analysis. Type of assay: functional, organism-based. Details: dose 50 mg/kg.
In assay [2] the test system is Rattus norvegicus. In words: Hepatoprotective activity in Rattus norvegicus Wistar albino (rat) assessed as reduction in CCl4-induced increase in SGPT level at 50 mg/kg, po administered QD for 6 days measured on day 8 by colorimetric analysis relative to control. It is filed as functional. Also noted: scale not given: the % may be the effect or the level left.
In assay [3] the test system is Rattus norvegicus. Put plainly: Hepatoprotective activity in Rattus norvegicus Wistar albino (rat) assessed as increase in CCl4-induced reduction in total protein level at 50 mg/kg, po administered QD for 6 days measured on day 8 relative to control. Type of assay: functional. Also noted: scale not given: the % may be the effect or the level left.
Assay [4] concerns Rattus norvegicus. Put plainly: Hepatoprotective activity in Rattus norvegicus Wistar albino (rat) assessed as reduction in CCl4-induced hepatocyte injury at 50 mg/kg, po administered QD for 6 days measured on day 8 by hematoxylin and eosin staining-based microscopic analysis. Also noted: dose 50 mg/kg. It is filed as functional, organism-based.
Assay [5] has as its system Rattus norvegicus. Put plainly: Hepatoprotective activity against CCl4-induced toxicity in Rattus norvegicus Wistar albino (rat) assessed as normal portal triad at 50 mg/kg, po administered QD for 6 days measured on day 8 by hematoxylin and eosin staining-based microscopic analysis. It is filed as functional, organism-based. Details: dose 50 mg/kg.
Assay [6] relates to Rattus norvegicus. In words: Hepatoprotective activity against CCl4-induced toxicity in Rattus norvegicus Wistar albino (rat) assessed as normal parenchyma at 50 mg/kg, po administered QD for 6 days measured on day 8 by hematoxylin and eosin staining-based microscopic analysis. Details: dose 50 mg/kg. It is filed as functional, organism-based.
Assay [7] relates to Rattus norvegicus. In words: Hepatoprotective activity against CCl4-induced toxicity in Rattus norvegicus Wistar albino (rat) assessed as clear central vein at 50 mg/kg, po administered QD for 6 days measured on day 8 by hematoxylin and eosin staining-based microscopic analysis. It is filed as functional, organism-based. Details: dose 50 mg/kg.
Assay [8] deals with Rattus norvegicus. Put plainly: Hepatoprotective activity in Rattus norvegicus Wistar albino (rat) assessed as reduction in CCl4-induced increase in alkaline phosphatase level at 50 mg/kg, po administered QD for 6 days measured on day 8 relative to control. Also noted: scale not given: the % may be the effect or the level left. Type of assay: functional.
Assay [9] relates to Rattus norvegicus. Put plainly: Hepatoprotective activity in Rattus norvegicus Wistar albino (rat) assessed as reduction in CCl4-induced necrosis at 50 mg/kg, po administered QD for 6 days measured on day 8 by hematoxylin and eosin staining-based microscopic analysis. Type of assay: functional, organism-based. Details: dose 50 mg/kg.
Assay [10] relates to Rattus norvegicus. Put plainly: Hepatoprotective activity in Rattus norvegicus Wistar albino (rat) assessed as reduction in CCl4-induced increase in SGOT level at 50 mg/kg, po administered QD for 6 days measured on day 8 by colorimetric analysis relative to ocntrol. It is filed as functional. Also noted: scale not given: the % may be the effect or the level left.
Assay [11] deals with Rattus norvegicus. Put plainly: Hepatoprotective activity in Rattus norvegicus Wistar albino (rat) assessed as reduction in CCl4-induced lymphocytic infiltration at 50 mg/kg, po administered QD for 6 days measured on day 8 by hematoxylin and eosin staining-based microscopic analysis. It is filed as functional, organism-based. Also noted: dose 50 mg/kg.
Assay [12] relates to Rattus norvegicus. In words: Hepatoprotective activity against CCl4-induced toxicity in Rattus norvegicus Wistar albino (rat) assessed as total albumin level at 50 mg/kg, po administered QD for 6 days measured on day 8 (reference value: 2.33 +/- 0.18 g/dl). It is filed as functional.

The source made the active and inactive calls. The calls are words filed in the database; no cut-off is given here.

Regarding `COc1c2ccoc2c(OC/C=C(\C)CC2C=C(C)C(=O)O2)c2oc(=O)ccc12` (configuration not stated) [FEROLACTONE], the result in [1], in assay [4], in assay [5], in [6], in assay [7] and in [9] was Active. Also, the result in assay [11] was Active. Further, the Activity stood at 39.63% in assay [2]; 36.15% in [3]; 41.16% in [8]; 43.44% in [10]; 3.44 g/dL in assay [12].
